Biological target: GSK3β (Homo sapiens, UniProt P49841)
Assay: Inhibitory activity against GSK3β (33P-ATP phosphorylation of prephosphorylated GS1 peptide, two protocols)
Format: biochemical
Procedure: Two different protocols can be used. In a first protocol: 7.5 μM of prephosphorylated GS1 peptide and 10 μM ATP (containing 300,000 cpm of 33P-ATP) were incubated in 25 mM Tris-HCl, pH 7.5, 0.6 mM DTT, 6 mM MgCl2, 0.6 mM EGTA, 0.05 mg/ml BSA buffer for 1 hour at room temperature in the presence of GSK3beta (total reaction volume: 100 microliters). In a second protocol: 4.1 μM of prephosphorylated GS1 peptide and 42 μM ATP (containing 260,000 cpm 33P-ATP) were incubated in 80 mM Mes-NaOH, pH 6.5, 1 mM Mg acetate, 0.5 mM EGTA, 5 mM 2-mercaptoethanol, 0.02% Tween 20, 10% glycerol buffer for 2 hours at room temperature in the presence of GSK3beta. Inhibitors were solubilized in DMSO (final solvent concentration in the reaction medium, 1%). The reaction was stopped with 100 microliters of a solution made of 25 g polyphosphoric acid (85% P2O5), 126 ml 85% H3PO4, H2O to 500 ml and then diluted to 1:100 before use. An aliquot of the reaction mixture was then transferred to Whatman P81 cation exchange filters and rinsed with the solution described above. Incorporated 33P radioactivity was determined by liquid scintillation spectrometry. The phosphorylated GS-1 peptide used in the example was the same one as reported in Woodgett, J. R. (1989) Analytical Biochemistry 180, 237-241 and had the same sequence as reported therein, which reference is incorporated herein by reference in its entirety.

Chain of GSK3β (P49841 whole entry): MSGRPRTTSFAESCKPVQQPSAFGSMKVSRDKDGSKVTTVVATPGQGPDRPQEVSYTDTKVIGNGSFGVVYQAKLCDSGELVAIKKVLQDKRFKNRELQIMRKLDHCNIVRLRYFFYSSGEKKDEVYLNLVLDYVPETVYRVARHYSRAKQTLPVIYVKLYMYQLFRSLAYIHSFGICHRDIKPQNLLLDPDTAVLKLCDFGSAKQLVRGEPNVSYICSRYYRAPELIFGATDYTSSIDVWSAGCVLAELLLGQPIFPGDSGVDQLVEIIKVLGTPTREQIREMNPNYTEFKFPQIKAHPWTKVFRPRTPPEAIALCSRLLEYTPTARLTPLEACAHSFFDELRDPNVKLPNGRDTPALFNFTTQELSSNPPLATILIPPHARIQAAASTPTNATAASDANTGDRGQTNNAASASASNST

Structure (SMILES): COc1cc(F)ccc1C(=O)NC1CCCn2c1nc(-c1ccncn1)cc2=O (racemic) [compound No. 33 of table 1, (+/−) 4-Fluoro-2-methoxy-N-(4-oxo-2-pyrimidin-4-yl-6,7,8,9-tetrahydro-4H-pyrido[1,2-a]pyrimidin-9-yl)benzamide]
- IC50: 5 nM

Source: US8148364B2, “Substituted bicyclic pyrimidone derivatives” (Sanofi-Aventis, priority 2005, dated 2012)
